{
  "source": "ChEMBL document CHEMBL3045204",
  "about": "“Synthesis and structureantibacterial activity relationship studies of 4-substituted phenyl-4,5-dihydrobenzo[f][1,4]oxazepin-3(2H)-thiones” (2011)",
  "assay_type_in_all_cases": "functional",
  "key": {"Candida albicans": {"system": "Candida albicans", "experiment": "Antifungal activity Candida albicans ATCC 90028 after 48 hr by broth microdilution method", "settings": "ATCC 90028, 48 h"}, "Pseudomonas aeruginosa": {"system": "Pseudomonas aeruginosa", "experiment": "Antibacterial activity Pseudomonas aeruginosa ATCC 27853 after 16 to 20 hr by broth microdilution method"}, "Staphylococcus aureus": {"system": "Staphylococcus aureus", "experiment": "Antibacterial activity Staphylococcus aureus […] after 16 to 20 hr by broth microdilution method"}, "Escherichia coli": {"system": "Escherichia coli", "experiment": "Antibacterial activity Escherichia coli ATCC 25922 after 16 to 20 hr by broth microdilution method"}, "Enterococcus faecalis": {"system": "Enterococcus faecalis", "experiment": "Antibacterial activity Enterococcus faecalis ATCC 29212 after 16 to 20 hr by broth microdilution method"}},
  "data": [
    {"smiles": "COc1ccc(N2Cc3ccccc3OCC2=S)cc1", "values": [
      {"measurement": "MIC", "setting": "Candida albicans", "value": 800, "unit": "µg/mL"},
      {"measurement": "MIC", "setting": "Pseudomonas aeruginosa", "value": 100, "unit": "µg/mL"},
      {"measurement": "MIC", "setting": "Staphylococcus aureus", "value": 400, "unit": "µg/mL"},
      {"measurement": "MIC", "setting": "Escherichia coli", "value": 200, "unit": "µg/mL"},
      {"measurement": "MIC", "setting": "Enterococcus faecalis", "value": 50, "unit": "µg/mL"}
    ]},
    {"smiles": "Cc1ccc(N2Cc3ccccc3OCC2=S)cc1", "values": [
      {"measurement": "MIC", "setting": "Candida albicans", "value": 200, "unit": "µg/mL"},
      {"measurement": "MIC", "setting": "Pseudomonas aeruginosa", "value": 25, "unit": "µg/mL"},
      {"measurement": "MIC", "setting": "Staphylococcus aureus", "value": 200, "unit": "µg/mL"},
      {"measurement": "MIC", "setting": "Escherichia coli", "value": 200, "unit": "µg/mL"},
      {"measurement": "MIC", "setting": "Enterococcus faecalis", "value": 25, "unit": "µg/mL"}
    ]},
    {"smiles": "Cc1cccc(N2Cc3ccccc3OCC2=S)c1", "values": [
      {"measurement": "MIC", "setting": "Candida albicans", "value": 800, "unit": "µg/mL"},
      {"measurement": "MIC", "setting": "Pseudomonas aeruginosa", "value": 100, "unit": "µg/mL"},
      {"measurement": "MIC", "setting": "Staphylococcus aureus", "value": 800, "unit": "µg/mL"},
      {"measurement": "MIC", "setting": "Escherichia coli", "value": 400, "unit": "µg/mL"},
      {"measurement": "MIC", "setting": "Enterococcus faecalis", "value": 50, "unit": "µg/mL"}
    ]},
    {"smiles": "S=C1COc2ccccc2CN1c1ccccc1", "values": [
      {"measurement": "MIC", "setting": "Candida albicans", "value": 800, "unit": "µg/mL"},
      {"measurement": "MIC", "setting": "Pseudomonas aeruginosa", "value": 100, "unit": "µg/mL"},
      {"measurement": "MIC", "setting": "Staphylococcus aureus", "value": 800, "unit": "µg/mL"},
      {"measurement": "MIC", "setting": "Escherichia coli", "value": 200, "unit": "µg/mL"},
      {"measurement": "MIC", "setting": "Enterococcus faecalis", "value": 100, "unit": "µg/mL"}
    ]},
    {"smiles": "Fc1ccc(N2Cc3ccccc3OCC2=S)cc1", "values": [
      {"measurement": "MIC", "setting": "Candida albicans", "value": 400, "unit": "µg/mL"},
      {"measurement": "MIC", "setting": "Pseudomonas aeruginosa", "value": 100, "unit": "µg/mL"},
      {"measurement": "MIC", "setting": "Staphylococcus aureus", "value": 800, "unit": "µg/mL"},
      {"measurement": "MIC", "setting": "Escherichia coli", "value": 100, "unit": "µg/mL"},
      {"measurement": "MIC", "setting": "Enterococcus faecalis", "value": 50, "unit": "µg/mL"}
    ]},
    {"smiles": "COc1cccc(N2Cc3ccccc3OCC2=S)c1", "values": [
      {"measurement": "MIC", "setting": "Candida albicans", "value": 100, "unit": "µg/mL"},
      {"measurement": "MIC", "setting": "Pseudomonas aeruginosa", "value": 50, "unit": "µg/mL"},
      {"measurement": "MIC", "setting": "Staphylococcus aureus", "value": 200, "unit": "µg/mL"},
      {"measurement": "MIC", "setting": "Escherichia coli", "value": 100, "unit": "µg/mL"},
      {"measurement": "MIC", "setting": "Enterococcus faecalis", "value": 25, "unit": "µg/mL"}
    ]},
    {"smiles": "S=C1COc2ccccc2CN1c1ccc(I)cc1", "values": [
      {"measurement": "MIC", "setting": "Candida albicans", "value": 800, "unit": "µg/mL"},
      {"measurement": "MIC", "setting": "Pseudomonas aeruginosa", "value": 50, "unit": "µg/mL"},
      {"measurement": "MIC", "setting": "Staphylococcus aureus", "value": 400, "unit": "µg/mL"},
      {"measurement": "MIC", "setting": "Escherichia coli", "value": 100, "unit": "µg/mL"},
      {"measurement": "MIC", "setting": "Enterococcus faecalis", "value": 50, "unit": "µg/mL"}
    ]},
    {"smiles": "S=C1COc2ccccc2CN1c1ccc(Cl)cc1", "values": [
      {"measurement": "MIC", "setting": "Candida albicans", "value": 800, "unit": "µg/mL"},
      {"measurement": "MIC", "setting": "Pseudomonas aeruginosa", "value": 100, "unit": "µg/mL"},
      {"measurement": "MIC", "setting": "Staphylococcus aureus", "value": 400, "unit": "µg/mL"},
      {"measurement": "MIC", "setting": "Escherichia coli", "value": 400, "unit": "µg/mL"},
      {"measurement": "MIC", "setting": "Enterococcus faecalis", "value": 25, "unit": "µg/mL"}
    ]},
    {"smiles": "S=C1COc2ccccc2CN1c1ccc(Br)cc1", "values": [
      {"measurement": "MIC", "setting": "Candida albicans", "value": 100, "unit": "µg/mL"},
      {"measurement": "MIC", "setting": "Pseudomonas aeruginosa", "value": 25, "unit": "µg/mL"},
      {"measurement": "MIC", "setting": "Staphylococcus aureus", "value": 100, "unit": "µg/mL"},
      {"measurement": "MIC", "setting": "Escherichia coli", "value": 100, "unit": "µg/mL"},
      {"measurement": "MIC", "setting": "Enterococcus faecalis", "value": 12.5, "unit": "µg/mL"}
    ]},
    {"smiles": "S=C1COc2ccccc2CN1c1cccc(Cl)c1", "values": [
      {"measurement": "MIC", "setting": "Candida albicans", "value": 800, "unit": "µg/mL"},
      {"measurement": "MIC", "setting": "Pseudomonas aeruginosa", "value": 200, "unit": "µg/mL"},
      {"measurement": "MIC", "setting": "Staphylococcus aureus", "value": 400, "unit": "µg/mL"},
      {"measurement": "MIC", "setting": "Escherichia coli", "value": 200, "unit": "µg/mL"},
      {"measurement": "MIC", "setting": "Enterococcus faecalis", "value": 100, "unit": "µg/mL"}
    ]},
    {"smiles": "FC(F)(F)c1cccc(N2Cc3ccccc3OCC2=S)c1", "values": [
      {"measurement": "MIC", "setting": "Candida albicans", "value": 400, "unit": "µg/mL"},
      {"measurement": "MIC", "setting": "Pseudomonas aeruginosa", "value": 50, "unit": "µg/mL"},
      {"measurement": "MIC", "setting": "Staphylococcus aureus", "value": 400, "unit": "µg/mL"},
      {"measurement": "MIC", "setting": "Escherichia coli", "value": 100, "unit": "µg/mL"},
      {"measurement": "MIC", "setting": "Enterococcus faecalis", "value": 25, "unit": "µg/mL"}
    ]},
    {"smiles": "O=[N+]([O-])c1cccc(N2Cc3ccccc3OCC2=S)c1", "values": [
      {"measurement": "MIC", "setting": "Candida albicans", "value": 200, "unit": "µg/mL"},
      {"measurement": "MIC", "setting": "Pseudomonas aeruginosa", "value": 25, "unit": "µg/mL"},
      {"measurement": "MIC", "setting": "Staphylococcus aureus", "value": 200, "unit": "µg/mL"},
      {"measurement": "MIC", "setting": "Escherichia coli", "value": 100, "unit": "µg/mL"},
      {"measurement": "MIC", "setting": "Enterococcus faecalis", "value": 25, "unit": "µg/mL"}
    ]},
    {"smiles": "O=[N+]([O-])c1ccc(N2Cc3ccccc3OCC2=S)cc1", "values": [
      {"measurement": "MIC", "setting": "Candida albicans", "value": 800, "unit": "µg/mL"},
      {"measurement": "MIC", "setting": "Pseudomonas aeruginosa", "value": 50, "unit": "µg/mL"},
      {"measurement": "MIC", "setting": "Staphylococcus aureus", "value": "> 1600", "unit": "µg/mL"},
      {"measurement": "MIC", "setting": "Escherichia coli", "value": 200, "unit": "µg/mL"},
      {"measurement": "MIC", "setting": "Enterococcus faecalis", "value": 50, "unit": "µg/mL"}
    ]},
    {"smiles": "CN(C)c1ccc(N2Cc3ccccc3OCC2=S)cc1", "values": [
      {"measurement": "MIC", "setting": "Candida albicans", "value": 800, "unit": "µg/mL"},
      {"measurement": "MIC", "setting": "Pseudomonas aeruginosa", "value": 100, "unit": "µg/mL"},
      {"measurement": "MIC", "setting": "Staphylococcus aureus", "value": 400, "unit": "µg/mL"},
      {"measurement": "MIC", "setting": "Escherichia coli", "value": 200, "unit": "µg/mL"},
      {"measurement": "MIC", "setting": "Enterococcus faecalis", "value": 25, "unit": "µg/mL"}
    ]},
    {"smiles": "CC1(C)S[C@@H]2[C@H](NC(=O)[C@H](N)c3ccccc3)C(=O)N2[C@H]1C(=O)O", "note": "[AMPICILLIN]", "values": [
      {"measurement": "MIC", "setting": "Staphylococcus aureus", "value": 0.78, "unit": "µg/mL"},
      {"measurement": "MIC", "setting": "Escherichia coli", "value": 6.25, "unit": "µg/mL"},
      {"measurement": "MIC", "setting": "Enterococcus faecalis", "value": 0.78, "unit": "µg/mL"}
    ]},
    {"smiles": "O=C(O)c1cn(C2CC2)c2cc(N3CCNCC3)c(F)cc2c1=O", "note": "[CIPROFLOXACIN]", "values": [
      {"measurement": "MIC", "setting": "Staphylococcus aureus", "value": 0.25, "unit": "µg/mL"},
      {"measurement": "MIC", "setting": "Escherichia coli", "value": 0.04, "unit": "µg/mL"},
      {"measurement": "MIC", "setting": "Enterococcus faecalis", "value": 0.25, "unit": "µg/mL"}
    ]},
    {"smiles": "OC(Cn1cncn1)(Cn1cncn1)c1ccc(F)cc1F", "note": "[FLUCONAZOLE]", "values": [
      {"measurement": "MIC", "setting": "Candida albicans", "value": 0.25, "unit": "µg/mL"}
    ]}
  ]
}
